Tests used:
[1] = system: Mper1-luc Rat-1 (P2C4) fibroblasts; test: Circadian cell assay (mPer1 luciferase reporter, period prolongation); assay type: cell-based; conditions: effective concentration that induced a 1-hour prolongation of the circadian period, interpolated from hyperbolic curve
Method: Mper1-luc Rat-1 (P2C4) fibroblast cultures were prepared by dividing the cultures every 3-4 days (approximately 10-20% of confluence) on 150 cm^2 degassed polystyrene tissue culture flasks (Falcon® #35-5001) and maintained in growth medium [EMEM (Cellgro #10-0,0-CV); 10% foetal bovine serum (FBS; Gibco #16000-044); and 50 I.U./ml of penicillin-streptomycin (Cellgro #30-001-CI)] at 37° C. and under 5% CO2.
Cells obtained from Rat-1 fibroblast cultures at 30-50% of confluence as described above were co-transfected with vectors containing the selection marker for resistance to zeocin for a stable transfection and a luciferase reporter gene controlled by the mPer-1 promoter. After 24 to 48 hours, the cultures were divided on 96-well plates and maintained in growth medium supplemented with 50-100 μg/ml of zeocin (Invitrogen® #45-0430) for 10-14 days. The zeocin-resistant stable transfectants were evaluated for the expression of the reporter by adding 100 μM luciferin (Promega® #E1603®) to the growth medium and by assaying the luciferase activity on a TopCount® scintillation counter (Packard Model #C384V00). The Rat-1 cell clones expressing both zeocin resistance and lucerifase activity controlled by mPer1 were serum-shock synchronized with 50% horse serum [HS (Gibco® #16050-122)] and the activity of the circadian reporter was evaluated. The P2C4 clone of Mper1-luc Rat-1 fibroblasts was selected to test the compound.
Mper1-luc Rat-1 (P2C4) fibroblasts at 40-50% of confluence, obtained according to the protocol described above, were plated out onto 96-well opaque tissue culture plates (Perkin Elmer® #6005680). The cultures are maintained in growth medium supplemented with 100 μg/ml of zeocin (Invitrogen #45-0430) until they reach 100% of confluence (48-72 h). The cultures were then synchronized with 100 μl of synchronization medium [EMEM (Cellgro #10-0,0-CV); 100 I.U./ml of penicillin-streptomycin (Cellgro #30-001-C1); 50% HS (Gibco #16050-122)] for 2 hours at 37° C. and under 5% CO2. After synchronization, the cultures were rinsed with 100 μl of EMEM (Cellgro #10-010-CV) for 10 minutes at ambient temperature. After rinsing, the medium was replaced with 300 μl of CO2 independent medium [CO2I (Gibco #18045-088); 2 mM L-glutamine (Cellgro #25-005-C1); 100 U.I./ml of penicillin-streptomycin (Cellgro #30-001-C1); 100 μM luciferin (Promega #E 1603)]. […]
The two methods produced a virtually identical period estimation on a range of circadian periods. […] The data were analysed by adjusting a hyperbolic curve to the data expressed as change of period (y-axis) as a function of the concentration of the test compound (x-axis) in the XLfit™ software and the CE Delta (t+1 h) was interpolated from this curve.

[2] = biological target: T1, casein kinase 1 epsilon (CK1 epsilon) (Homo sapiens, UniProt P49674); test: Filter-plate assay of ATP-33P, inhibition of phosphorylation of casein by CK1 epsilon; assay type: biochemical; conditions: ATP-33P filtration, cold ATP 10 μM final, 2 hours at ambient temperature, read-out: CK1 epsilon Cl50
T1 construct: Invitrogen Corporation (alternative)
T1 sequence (P49674 whole entry): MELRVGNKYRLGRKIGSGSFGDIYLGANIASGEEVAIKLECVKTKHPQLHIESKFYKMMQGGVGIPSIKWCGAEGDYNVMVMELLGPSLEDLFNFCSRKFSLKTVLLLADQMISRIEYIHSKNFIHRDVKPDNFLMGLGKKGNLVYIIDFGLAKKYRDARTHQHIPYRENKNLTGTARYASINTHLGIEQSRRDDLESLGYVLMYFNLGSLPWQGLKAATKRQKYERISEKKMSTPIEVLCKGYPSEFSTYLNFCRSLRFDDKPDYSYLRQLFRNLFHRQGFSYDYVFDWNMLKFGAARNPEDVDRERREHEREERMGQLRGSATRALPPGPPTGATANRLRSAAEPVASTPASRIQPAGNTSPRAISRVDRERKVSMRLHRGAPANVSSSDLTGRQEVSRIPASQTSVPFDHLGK
Method: The capacity of the compounds of the invention to inhibit the phosphorylation of casein by casein kinase 1 epsilon and delta may be evaluated according to the procedure described in US 2005/0131012.
Filter-Plate Assay of ATP-^33P for the Screening of CK1 Epsilon Inhibitors:
The effect of the compounds on inhibition of the phosphorylation of casein by the enzyme casein kinase 1 epsilon (CK1 epsilon) is measured, using a casein assay with filtration of ATP-^33P in vitro.
Casein kinase 1 epsilon (0.58 mg/ml) is obtained via fermentation and purification processes performed according to methods that are well known to those skilled in the art, or may also be obtained from Invitrogen Corporation™ (human CK1 epsilon).
The compounds are tested at five different concentrations so as to generate IC50 values, i.e. the concentration at which a compound is capable of inhibiting the enzymatic activity by 50%, or alternatively the percentage of inhibition at a concentration of 10 micromolar.
“U”-bottomed Falcon plates are prepared by placing 5 μl of solutions of the compounds according to the invention at concentrations of 10, 1, 0.1, 0.01 or 0.001 μM in different wells. The solutions of the compounds according to the invention at these various concentrations are prepared by diluting in a test buffer (50 mM Tris, pH 7.5, […], 2 mM DTT and 1 mM EGTA) a stock solution in DMSO at a concentration of 10 mM. Next, 5 μl of dephosphorylated casein are added to a final concentration of 0.2 μg/μl, 20 μl of CK1 epsilon to a final concentration of 3 ng/μl, and 20 μl of ATP-^33P to a final concentration of 0.02 μCi/μl mixed with cold ATP (10 μM final—approximately 2×10^6 CPM per well). The final total test volume per well is equal to 50 μl.
The “U”-bottomed Falcon® test plate mentioned above is vortexed, and then incubated at ambient temperature for 2 hours. After 2 hours, the reaction is stopped by adding an ice-cold solution of 65 μl of ATP (2 mM) prepared in test buffer.
100 μl of the reaction mixture are then transferred from the “U”-bottomed Falcon® plate into Millipore® MAPH filter plates, preimpregnated with 25 μl of ice-cold 100% TCA. […]
The plates are left to dry overnight at ambient temperature. […] The radiation emitted by each well is then measured for 2 minutes in a Packard® Topcount NXT scintillation counter, in which the values of CPM/well are measured.
The percentage inhibition of the capacity of the enzyme to phosphorylate the substrate (casein) is determined for each concentration of compound tested. These inhibition data expressed as percentages are used to calculate the IC50 value for each compound compared with the controls.
The kinetic studies determined the KM value for ATP as being 21 μM in this test system.

human CK1 delta = biological target: T2, human CK1 delta (Homo sapiens, UniProt P48730); test: FRET Z'Lyte kinase assay, CK1 delta; assay type: biochemical; conditions: peptide substrate SER/THR 11 2 μM, ATP 4 times the KM, read-out: CK1 delta Cl50
T2 construct: purchased Invitrogen Corporation PV3665
T2 sequence (P48730 whole entry): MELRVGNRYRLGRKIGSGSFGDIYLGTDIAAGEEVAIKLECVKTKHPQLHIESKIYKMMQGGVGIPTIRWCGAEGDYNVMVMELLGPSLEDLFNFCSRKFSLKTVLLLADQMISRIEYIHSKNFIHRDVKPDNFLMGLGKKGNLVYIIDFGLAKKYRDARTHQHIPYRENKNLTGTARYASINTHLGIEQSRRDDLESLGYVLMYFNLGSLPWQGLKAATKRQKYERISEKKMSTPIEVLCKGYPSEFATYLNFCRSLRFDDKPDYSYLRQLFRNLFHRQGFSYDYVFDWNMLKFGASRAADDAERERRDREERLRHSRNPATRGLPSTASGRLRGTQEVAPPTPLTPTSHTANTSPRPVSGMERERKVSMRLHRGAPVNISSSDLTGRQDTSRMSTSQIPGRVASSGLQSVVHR
Source text: The capacity of the compounds of the invention to inhibit the phosphorylation of casein by casein kinase 1 epsilon and delta may be evaluated using a FRET (Fluorescence Resonance Energy Transfer) fluorescence test with the aid of the Z'Lyte™ kinase assay Kit (reference PV3670; Invitrogen Corporation™) according to the manufacturer's instructions.
The casein kinases 1 used are obtained from Invitrogen Corporation (human CK1 epsilon PV3500 and human CK1 delta PV3665).
A peptide substrate, labelled at both ends with a fluorophore donor group (coumarin) and a fluorophore acceptor group (fluorescein), constituting a FRET system is phosphorylated in the presence of ATP by casein kinase 1 epsilon or delta in the presence of increasing concentrations of compounds of the invention.
The mixture is treated with a site-specific protease that specifically cleaves the peptide substrate to form two fluorescent fragments having a large fluorescence emission ratio.
The fluorescence observed is thus related to the capacity of the products of the invention to inhibit the phosphorylation of the peptide substrate by casein kinase 1 epsilon or casein kinase 1 delta. […]
The emitted fluorescence is measured at wavelengths of 445 and 520 nm (excitation at 400 nm).

Row | Compound | CE Delta (t + 1 h) [1] [nM] | IC50 [2] [nM] | IC50 (human CK1 delta) [nM] | melting point [°C]
1 | CC1(C)CN(c2ccc3nc(C4CC4)c(-c4ccnc(F)c4)n3n2)CCN1 [Compound 53, 2-Cyclopropyl-6-(3,3-dimethylpiperazin-1-yl)-3-(2-fluoropyridin-4-yl)imidazo[1,2-b]pyridazine] | 319 | 292 | – | –
2 | Cc1nc2ccc(N3C[C@@H](C)N[C@@H](C)C3)nn2c1-c1ccncc1 [Compound 54, 6-(cis-3,5-Dimethylpiperazin-1-yl)-2-methyl-3-pyridin-4-ylimidazo[1,2-b]pyridazine] | – | – | < 1 | –
3 | Cc1nc2ccc(N3CC4CNCC4C3)nn2c1-c1ccncc1 (centres unmarked) [Compound 66, 6-Hexahydropyrrolo[3,4-c]pyrrol-2(1H)-yl-2-methyl-3-pyridin-4-ylimidazo[1,2-b]pyridazine] | 633 | 13 | – | 153 to 155
4 | Cc1nc2ccc(N3CCC4(CCCNC4)CC3)nn2c1-c1ccncc1 [Compound 78, 9-(2-Methyl-3-pyridin-4-yl-imidazo[1,2-b]pyridazin-6-yl)-2,9-diazaspiro[5.5]undecane] | 515 | 78 | – | –
